Here are results for 14 molecules from ChEMBL document CHEMBL1201862, “PubChem BioAssay data set” (2004).

Some test systems named below: EKVX; HL-60; K562; NCI-H23; NCI-H460; NCI-H522; SF-268; SF-539; SK-OV-3; SN12C; SNB-75; SR; U-251; UACC-257; UACC-62; UO-31.
Holding throughout (test): growth of human tumour cells (NCI), 48 h

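48-hour exposure; five concentrations; linearly interpolated endpoints. GI50 = concentration required for 50% inhibition of growth.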 Calls of active or inactive are those of the source. No stated cut-off is given here; in the data, active = GI50 up to about 1.1 µM and inactive = higher. Bounds are passed on as bounds.

Regarding `Cc1ccc(C)c(C(=O)CC2OC(O)C(Cl)C2Cl)c1` (centres undefined), the GI50 with EKVX is > 100 µM (inactive); in the experiment with HL-60 it was 20.6 µM (inactive); with K562, 32.5 µM (inactive); in the experiment on NCI-H23 it was > 100 µM (inactive); in the experiment with NCI-H460 it was > 100 µM (inactive); in the experiment with NCI-H522, 15.6 µM (inactive). Moreover, the GI50 in the experiment on SF-268 was > 100 µM (inactive); in the experiment on SF-539 it was 24 µM (inactive); in the experiment with SK-OV-3, > 100 µM (inactive); in the experiment on SN12C, 5.7 µM (inactive); in the experiment with SNB-75 it was 52 µM (inactive); in the experiment on SR, 44 µM (inactive). The GI50 is > 100 µM (inactive) in the experiment on U-251, > 100 µM (inactive) in the experiment on UACC-257, 57.3 µM (inactive) in the experiment on UACC-62 and > 100 µM (inactive) in the experiment on UO-31.
Turning to `CC(=O)Nc1ccc(-c2nnc(SCC(=O)Nc3ccccc3Cl)o2)cc1`, the GI50 in the experiment on HL-60, in the experiment with K562, in the experiment on NCI-H23, in the experiment on NCI-H460, with NCI-H522 and in the experiment with SF-268 was > 100 µM (inactive) in each case. In addition, the GI50 in the experiment with SF-539, with SK-OV-3, in the experiment on SN12C, in the experiment on SNB-75, in the experiment with U-251 and with UACC-257 was > 100 µM (inactive) in each case. The GI50 with UO-31 is > 100 µM (inactive).
On to `NC1=NN(c2ccccc2)C(=O)C1/C(=N\NC(=O)c1cc2ccccc2cc1O)C(=O)Nc1ccc(Cl)c(Cl)c1` (centres undefined), for which the GI50 in the experiment with EKVX was 14.4 µM (inactive); in the experiment on HL-60 it was 5.13 µM (inactive); with K562, 28.4 µM (inactive); in the experiment on NCI-H23 it was 28.9 µM (inactive); in the experiment on NCI-H460 it was 31.3 µM (inactive); with NCI-H522 it was 16.5 µM (inactive). Also, the GI50 was 22.9 µM (inactive) in the experiment with SF-268; 30.9 µM (inactive) with SF-539; 35.6 µM (inactive) with SN12C; 31.2 µM (inactive) in the experiment with SNB-75; 0.0612 µM (active) with SR; 33 µM (inactive) with U-251. For the same molecule, the GI50 in the experiment with UACC-257 was 29.7 µM (inactive); in the experiment with UACC-62, 17.7 µM (inactive); in the experiment with UO-31, 17.6 µM (inactive).
`CC(C)(C)c1cc(CCC(=O)Nc2ccc(Cl)cc2)nc(NC#N)n1`: the GI50 with EKVX, in the experiment on HL-60, in the experiment with K562, in the experiment on NCI-H23, in the experiment on NCI-H460 and in the experiment with SF-268 was > 100 µM (inactive) each time. Moreover, the GI50 in the experiment on SF-539, in the experiment on SK-OV-3, in the experiment with U-251, in the experiment with UACC-257, in the experiment with UACC-62 and with UO-31 was > 100 µM (inactive) each time.
For the molecule `C[N+](C)(C)CC(=O)N/N=C/c1oc(-c2cccc([N+](=O)[O-])c2)c(-c2cccc([N+](=O)[O-])c2)c1[N+](=O)[O-]`, the GI50 with EKVX was > 100 µM (inactive); in the experiment on HL-60 it was 42.3 µM (inactive); in the experiment with K562, > 10 µM (inactive); in the experiment with NCI-H23, > 100 µM (inactive); in the experiment on NCI-H460, > 100 µM (inactive); in the experiment on NCI-H522, 50.7 µM (inactive). In addition, the GI50 in the experiment on SF-268 was > 100 µM (inactive); in the experiment with SF-539, > 100 µM (inactive); in the experiment on SK-OV-3, > 100 µM (inactive); in the experiment on SN12C, > 100 µM (inactive); in the experiment on SR, 40.1 µM (inactive); in the experiment with UACC-257, > 100 µM (inactive). Moreover, the values for the GI50 in the experiment on UACC-62 and with UO-31 were 29.5 µM (inactive) and 79.1 µM (inactive), respectively.
As for `O=c1[c-](-c2ccccc2)[se]c(-c2ccccc2)[n+]1-c1ccccc1`, the GI50 was 13.5 µM (inactive) in the experiment on EKVX; 1.53 µM (inactive) in the experiment with HL-60; 16.8 µM (inactive) in the experiment on K562; 11.8 µM (inactive) with NCI-H23; 15.9 µM (inactive) in the experiment on NCI-H460; 2.91 µM (inactive) in the experiment with NCI-H522. In addition, the GI50 with SF-268 was 5.55 µM (inactive); in the experiment on SF-539 it was 1.48 µM (inactive); in the experiment on SK-OV-3, 24.2 µM (inactive); with SN12C, 5.05 µM (inactive); in the experiment on SNB-75, 8.15 µM (inactive); in the experiment on UACC-257, 12.8 µM (inactive). For the same molecule, the GI50 was 13 µM (inactive) in the experiment with UACC-62 and 3.08 µM (inactive) in the experiment on UO-31.
As for `Cc1cc2c(cc1C)[n+]([O-])c(C(=O)C/C(=N/NC(=O)CC#N)C(=O)Nc1ccccc1C(F)(F)F)c(C)[n+]2[O-]`, the GI50 is 53.1 µM (inactive) in the experiment with EKVX; 24.3 µM (inactive) with HL-60; 35.6 µM (inactive) with K562; 91.4 µM (inactive) with NCI-H23; 34.4 µM (inactive) with NCI-H460; 18.8 µM (inactive) in the experiment with NCI-H522. The GI50 in the experiment with SF-268 is 39.9 µM (inactive); in the experiment with SF-539 it was 50.2 µM (inactive); in the experiment with SK-OV-3, > 100 µM (inactive); in the experiment with SN12C, 76 µM (inactive); with SNB-75, 36.6 µM (inactive); in the experiment on U-251, 49.5 µM (inactive). Moreover, the results for the GI50 with UACC-257 and in the experiment with UACC-62 were 44.6 µM (inactive) and 34 µM (inactive), respectively.
As to `CC(=O)Nc1ccc(Cl)c(Cl)c1`, the GI50 in the experiment on EKVX is > 100 µM (inactive); in the experiment on HL-60, > 10 µM (inactive); with K562 it was > 100 µM (inactive); in the experiment with NCI-H23 it was > 100 µM (inactive); in the experiment with NCI-H460, > 100 µM (inactive); with NCI-H522, > 100 µM (inactive). In addition, the GI50 in the experiment on SF-268, in the experiment on SF-539, in the experiment on SK-OV-3, with SN12C, with SNB-75 and in the experiment on SR was > 100 µM (inactive) throughout. Further, the GI50 in the experiment on U-251, in the experiment with UACC-257, in the experiment with UACC-62 and in the experiment on UO-31 was > 100 µM (inactive) throughout.
With `Cc1cccc2nc3cccc(C(=O)NCCN(C)C)c3nc12`, the GI50 was 0.443 µM (active) in the experiment on EKVX; 0.461 µM (active) in the experiment on HL-60; 0.363 µM (active) with K562; 0.541 µM (active) with NCI-H23; 0.301 µM (active) with NCI-H460; 0.885 µM (active) in the experiment with SF-268. The GI50 was 0.292 µM (active) with SF-539; 0.574 µM (active) in the experiment with SK-OV-3; 0.339 µM (active) in the experiment on SN12C; 1.08 µM (active) in the experiment on SNB-75; 0.492 µM (active) in the experiment with U-251; 0.491 µM (active) in the experiment on UACC-257. Also, the GI50 with UACC-62 is 0.644 µM (active); in the experiment on UO-31, 0.239 µM (active).
As to `O=C1C=C(Nc2ccc(Br)cc2)c2ccccc2C1=O`, the GI50 in the experiment with EKVX is 18.5 µM (inactive); in the experiment with HL-60, 4.51 µM (inactive); in the experiment on K562, 13.9 µM (inactive); in the experiment on NCI-H23, 3.33 µM (inactive); in the experiment with NCI-H460 it was 7.28 µM (inactive); in the experiment with NCI-H522, 11.3 µM (inactive). Further, the GI50 is 13.5 µM (inactive) with SF-268; 16 µM (inactive) in the experiment with SF-539; 16.8 µM (inactive) with SK-OV-3; 15.2 µM (inactive) in the experiment on SN12C; 11 µM (inactive) in the experiment on SNB-75; 2.54 µM (inactive) with SR. For the same molecule, the GI50 in the experiment with U-251 was 4 µM (inactive); with UACC-257, 13.5 µM (inactive); with UACC-62, 4.39 µM (inactive); with UO-31, 16 µM (inactive).
With `CSc1s[s+]c(SC)c1[O-]`, the GI50 in the experiment on EKVX was 75.7 µM (inactive); in the experiment with HL-60, 17.4 µM (inactive); with K562, 3.94 µM (inactive); in the experiment on NCI-H23, 20.5 µM (inactive); in the experiment on NCI-H460, 29.3 µM (inactive); in the experiment with NCI-H522 it was 15.7 µM (inactive). Besides, the GI50 was 20.9 µM (inactive) in the experiment on SF-268; 20.6 µM (inactive) with SF-539; > 100 µM (inactive) with SK-OV-3; 22.1 µM (inactive) in the experiment with SN12C; 38.6 µM (inactive) in the experiment with SNB-75; 9.95 µM (inactive) with SR. In addition, the GI50 in the experiment on U-251 was 26.7 µM (inactive); in the experiment with UACC-257 it was 17.7 µM (inactive); in the experiment with UACC-62 it was 14.4 µM (inactive); in the experiment with UO-31 it was > 100 µM (inactive).
In the case of `COC(=O)C1=C(c2ccc3c(c2)OCO3)O[C@H](c2ccc3c(c2)OCO3)[C@H]1COC(C)=O`, the GI50 with EKVX was 59 µM (inactive); in the experiment with HL-60, 21.8 µM (inactive); in the experiment with K562 it was 35.4 µM (inactive); in the experiment on NCI-H23 it was 37.3 µM (inactive); in the experiment with NCI-H460, 63.5 µM (inactive); with SF-268 it was 87.5 µM (inactive). Besides, the GI50 was 61.2 µM (inactive) in the experiment with SF-539; 41 µM (inactive) in the experiment on SK-OV-3; 45.2 µM (inactive) in the experiment on SN12C; 49.5 µM (inactive) in the experiment with SNB-75; 32.1 µM (inactive) with SR; 53 µM (inactive) in the experiment on U-251. In addition, the GI50 in the experiment with UACC-257 is 55.2 µM (inactive); in the experiment on UACC-62, 38.6 µM (inactive); in the experiment with UO-31, 38.7 µM (inactive).
Take `CC(C)N(C(=O)C12C3C4C1C1C2C3C41C(=O)O)C(C)C` (centres undefined): the GI50 in the experiment on EKVX, with HL-60, with K562, with NCI-H23, with NCI-H460 and with NCI-H522 was > 100 µM (inactive) each time. For the same molecule, the GI50 in the experiment with SF-268, in the experiment with SF-539, in the experiment on SK-OV-3, in the experiment with SN12C, in the experiment with SNB-75 and in the experiment on UACC-257 was > 100 µM (inactive) in each case. The GI50 with UACC-62 and with UO-31 was > 100 µM (inactive) each time.
As for `COC(=O)Cc1cc(OC)c(OC)cc1Br`, the GI50 in the experiment on EKVX, in the experiment on HL-60, in the experiment with K562, with NCI-H23, with NCI-H460 and in the experiment on NCI-H522 was > 100 µM (inactive) throughout. The GI50 is > 100 µM (inactive) in the experiment on SF-268; > 100 µM (inactive) with SK-OV-3; > 100 µM (inactive) with SN12C; 66.4 µM (inactive) in the experiment on SNB-75; > 100 µM (inactive) in the experiment on SR; > 100 µM (inactive) with U-251. Further, the GI50 in the experiment on UACC-257, in the experiment with UACC-62 and with UO-31 was > 100 µM (inactive) each time.
